The values that follow come from patent publication US20250101041A1, “POSITIVE ALLOSTERIC MODULATORS OF THE MUSCARINIC ACETYLCHOLINE RECEPTOR M4” (Vanderbilt University, priority 2022, published 2025).

Molecules are shown by their SMILES.

This assay deals with T1, human mAChR M4 (Homo sapiens, UniProt P08173).
T1 construct: expressed in transfected cells; host or cells: CHO-K1 (American Type Culture Collection), stably expressing hM4 and Gqi5
T1 sequence (P08173 1-479): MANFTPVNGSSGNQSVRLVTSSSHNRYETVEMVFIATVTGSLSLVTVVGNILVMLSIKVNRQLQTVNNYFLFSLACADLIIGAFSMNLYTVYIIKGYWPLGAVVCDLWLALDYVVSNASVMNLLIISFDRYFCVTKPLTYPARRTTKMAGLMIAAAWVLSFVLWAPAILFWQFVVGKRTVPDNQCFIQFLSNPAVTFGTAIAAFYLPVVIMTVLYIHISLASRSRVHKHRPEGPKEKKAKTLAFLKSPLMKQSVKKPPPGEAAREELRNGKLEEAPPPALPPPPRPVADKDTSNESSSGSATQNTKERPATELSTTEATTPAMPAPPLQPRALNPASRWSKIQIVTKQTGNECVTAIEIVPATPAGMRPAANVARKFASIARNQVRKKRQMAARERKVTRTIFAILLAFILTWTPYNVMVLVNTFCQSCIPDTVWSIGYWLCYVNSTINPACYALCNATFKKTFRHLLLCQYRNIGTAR
Briefly: mAChR M4 cell-based functional assay: calcium mobilization (Fluo-4, FDSS), potentiation of EC20 acetylcholine response in hM4-Gqi5 CHO-K1 cells. The arrangement: Emax: dose or concentration left out as unconfirmed. The note with it: for Emax at 30 µM: CHO-K1, % ACh maximum at 30 μM; for Emax at 30 µM / EC50: human M4; for EC50: potentiation of EC20 acetylcholine response, calcium mobilization. Put shortly:
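Readout is the fluorescence-ratio rise at 1 Hz on FDSS, with PAM activity taken as concentration-dependent enhancement of the EC20 acetylcholine response, fitted four-parameter for EC50/Emax. hM4-Gqi5 CHO-K1 cells carried Fluo-4 AM dye; test compounds (11 points, 1:3) preceded EC20 acetylcholine additions at 144 s and 230 s.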

For the molecule `Cc1cc(=O)n2nc(N3CCc4ncc(-c5cnn(C6CCOCC6)c5)cc4C3)c(C)c(C)c2n1` [Compound 1-182, 2,8,9-trimethyl-7-(3-(1-(tetrahydro-2H-pyran-4-yl)-1H-pyrazol-4-yl)-7,8-dihydro-1,6-naphthyridin-6(5H)-yl)-4H-pyrimido[1,2-b]pyridazin-4-one], the Emax at 30 µM was found to be 66% and the concentration giving a half-maximal response (EC50) was 1.41 µM.

For `Cc1cc2nccc(=O)n2nc1N1CCc2ncc(NC(=O)C3CC3)cc2C1` [Compound 2-108, N-(6-(8-methyl-4-oxo-4H-pyrimido[1,2-b]pyridazin-7-yl)-5,6,7,8-tetrahydro-1,6-naphthyridin-3-yl)cyclopropanecarboxamide], the Emax at 30 µM is 56% and the EC50 was determined as 1.65 µM. `COCc1cc(=O)n2nc(N3CCc4ncc(-c5cncnc5)cc4C3)c(C)cc2n1` [Compound 1-324, 2-(methoxymethyl)-8-methyl-7-(3-(pyrimidin-5-yl)-7,8-dihydro-1,6-naphthyridin-6(5H)-yl)-4H-pyrimido[1,2-b] pyridazin-4-one]: the maximal effect (Emax) at 30 µM was 59%. For the molecule `Cc1c(N2CCc3ncc(-c4cncc(F)c4)cc3C2)nn2c(=O)cc(C(F)F)nc2c1C` [Compound 1-156, 2-(difluoromethyl)-7-(3-(5-fluoropyridin-3-yl)-7,8-dihydro-1,6-naphthyridin-6(5H)-yl)-8,9-dimethyl-4H-pyrimido[1,2-b]pyridazin-4-one], the maximal effect (Emax) at 30 µM was determined as 95% and the EC50 stood at 0.204 µM. Taken in the same sequence, the figures for `Cc1c(N2CCc3ncc(N4CC(C)(C)OC4=O)cc3C2)nn2c(=O)ccnc2c1C` [Compound 2-150, 3-(6-(8,9-dimethyl-4-oxo-4H-pyrimido[1,2-b]pyridazin-7-yl)-5,6,7,8-tetrahydro-1,6-naphthyridin-3-yl)-5,5-dimethyloxazolidin-2-one] were 63% and 4.38 µM. Taken in the same sequence, the figures for `Cc1c(N2CCc3ncc(-c4ccc(N(C)C)nc4)cc3C2)nn2c(=O)cc(C(F)F)nc2c1C` [Compound 1-92, 2-(difluoromethyl)-7-(3-(6-(dimethylamino)pyridin-3-yl)-7,8-dihydro-1,6-naphthyridin-6(5H)-yl)-8,9-dimethyl-4H-pyrimido[1,2-b]pyridazin-4-one] were 76% and 0.339 µM. Consider `Cc1cc2nccc(=O)n2nc1N1CCc2ncc(Nc3cccc(F)c3)cc2C1` [Compound 2-79, 7-(3-((3-fluorophenyl)amino)-7,8-dihydro-1,6-naphthyridin-6(5H)-yl)-8-methyl-4H-pyrimido[1,2-b]pyridazin-4-one], for which the maximal response (Emax) at 30 µM was 99% and the EC50 was determined as 0.02 µM.

For the molecule `Cc1cc(C(=O)O)ncc1-c1cnc2c(c1)CN(c1nn3c(=O)ccnc3cc1C)CC2` [Compound 1-406, 4-methyl-5-(6-(8-methyl-4-oxo-4H-pyrimido[1,2-b]pyridazin-7-yl)-5,6,7,8-tetrahydro-1,6-naphthyridin-3-yl)picolinic acid], the maximum response (Emax) at 30 µM amounted to 86% and the 50% effective concentration (EC50) came out at 3.97 µM.

Take `Cc1cc(F)ncc1-c1cnc2c(c1)CN(c1nn3c(=O)ccnc3c(C)c1C)CC2` [Compound 1-149, 7-(3-(6-Fluoro-4-methylpyridin-3-yl)-7,8-dihydro-1,6-naphthyridin-6(5H)-yl)-8,9-dimethyl-4H-pyrimido[1,2-b]pyridazin-4-one]: the Emax at 30 µM is 89% and the concentration giving a half-maximal response (EC50) turned out to be 0.068 µM. The like results for `Cc1cc2nccc(=O)n2nc1N1CCc2ncc(-c3cnn(C(F)F)c3C)cc2C1` [Compound 1-414, 7-(3-(1-(difluoromethyl)-5-methyl-1H-pyrazol-4-yl)-7,8-dihydro-1,6-naphthyridin-6(5H)-yl)-8-methyl-4H-pyrimido[1,2-b]pyridazin-4-one] were, in that order, 81% and 0.435 µM. The like results for `Cc1cc2nccc(=O)n2nc1N1CCc2ncc(Nc3ccncc3)cc2C1` [Compound 2-97, 8-methyl-7-(3-(pyridin-4-ylamino)-7,8-dihydro-1,6-naphthyridin-6(5H)-yl)-4H-pyrimido[1,2-b]pyridazin-4-one] were, in that order, 96% and 0.092 µM. As for `C=Cc1cnc2cc(C)c(N3CCc4ncc(C(F)(F)F)cc4C3)nn2c1=O` [Compound 1-22, 8-Methyl-7-(3-(trifluoromethyl)-7,8-dihydro-1,6-naphthyridin-6(5H)-yl)-3-vinyl-4H-pyrimido[1,2-b]pyridazin-4-one], the EC50 came to 0.246 µM. Further, the Emax (CHO-K1) stood at 73%.

Consider `Cc1c(N2CCc3ncc(-c4cnn(C5CCCCO5)c4)cc3C2)nn2c(=O)ccnc2c1C` (centres unmarked) [Compound 1-150, 8,9-dimethyl-7-(3-(1-(tetrahydro-2H-pyran-2-yl)-1H-pyrazol-4-yl)-7,8-dihydro-1,6-naphthyridin-6(5H)-yl)-4H-pyrimido[1,2-b]pyridazin-4-one], for which the Emax at 30 µM was found to be 74% and the EC50 stood at 0.511 µM.

As to `Cc1cc(=O)n2nc(N3CCc4ncc(-c5ccncc5C)cc4C3)c(C)cc2n1` [Compound 1-241, 2,8-dimethyl-7-(3-(3-methylpyridin-4-yl)-7,8-dihydro-1,6-naphthyridin-6(5H)-yl)-4H-pyrimido[1,2-b] pyridazin-4-one], the Emax at 30 µM was determined as 87% and the EC50 amounted to 0.228 µM.

Consider `COc1cc(C)c(-c2cnc3c(c2)CN(c2nn4c(=O)cc(C)nc4cc2C)CC3)cn1` [Compound 1-285, 7-(3-(6-methoxy-4-methylpyridin-3-yl)-7,8-dihydro-1,6-naphthyridin-6(5H)-yl)-2,8-dimethyl-4H-pyrimido[1,2-b]pyridazin-4-one], for which the Emax at 30 µM came to 89% and the concentration giving a half-maximal response (EC50) stood at 0.552 µM. Consider `Cc1ccc(-c2cnc3c(c2)CN(c2nn4c(=O)ccnc4cc2C)CC3)nn1` [Compound 1-353, 8-methyl-7-(3-(6-methylpyridazin-3-yl)-7,8-dihydro-1,6-naphthyridin-6(5H)-yl)-4H-pyrimido[1,2-b] pyridazin-4-one], for which the maximum response (Emax) at 30 µM turned out to be 55% and the EC50 was determined as 1.27 µM. Take `COCc1cc(=O)n2nc(N3CCc4ncc(-c5cnc(OC)cc5C)cc4C3)c(C)c(C)c2n1` [Compound 1-262, 7-(3-(6-methoxy-4-methylpyridin-3-yl)-7,8-dihydro-1,6-naphthyridin-6(5H)-yl)-2-(methoxymethyl)-8,9-dimethyl-4H-pyrimido[1,2-b]pyridazin-4-one]: the Emax at 30 µM was found to be 99% and the EC50 was 1.75 µM.

Take `Cc1ccc(-c2cnc3c(c2)CN(c2nn4c(=O)c(C)cnc4cc2C)CC3)cn1` [Compound 1-86, 3,8-dimethyl-7-(3-(6-methylpyridin-3-yl)-7,8-dihydro-1,6-naphthyridin-6(5H)-yl)-4H-pyrimido[1,2-b]pyridazin-4-one]: the Emax at 30 µM is 94% and the EC50 is 0.243 µM. Taken in the same sequence, the figures for `Cc1cc(C#N)ncc1-c1cnc2c(c1)CN(c1nn3c(=O)ccnc3cc1C)CC2` [Compound 1-355, 4-methyl-5-(6-(8-methyl-4-oxo-4H-pyrimido[1,2-b]pyridazin-7-yl)-5,6,7,8-tetrahydro-1,6-naphthyridin-3-yl)picolinonitrile] were 78% and 1.52 µM. Turning to `Cc1cc2nc(C(F)F)cc(=O)n2nc1N1CCc2ncc(-c3cn(C)nc3C)cc2C1` [Compound 1-34, 2-(difluoromethyl)-7-(3-(1,3-dimethyl-1H-pyrazol-4-yl)-7,8-dihydro-1,6-naphthyridin-6(5H)-yl)-8-methyl-4H-pyrimido[1,2-b]pyridazin-4-one], the maximum response (Emax) at 30 µM was found to be 90% and the EC50 was 0.073 µM. With `COCc1cc(=O)n2nc(N3CCc4ncc(-c5sccc5OC)cc4C3)c(C)cc2n1` [Compound 1-368, 2-(methoxymethyl)-7-(3-(3-methoxythiophen-2-yl)-7,8-dihydro-1,6-naphthyridin-6(5H)-yl)-8-methyl-4H-pyrimido[1,2-b]pyridazin-4-one], the Emax at 30 µM was 95% and the EC50 turned out to be 0.293 µM. Regarding `COCc1cc(=O)n2nc(N3CCc4ncc(C(F)(F)F)cc4C3)c(C)c(C)c2n1` [Compound 1-109, 2-(Methoxymethyl)-8,9-dimethyl-7-(3-(trifluoromethyl)-7,8-dihydro-1,6-naphthyridin-6(5H)-yl)-4H-pyrimido[1,2-b]pyridazin-4-one], the Emax at 30 µM amounted to 79% and the EC50 was determined as 0.06 µM. Taken in the same sequence, the figures for `Cc1cc2nccc(=O)n2nc1N1CCc2ncc(-c3ccccc3C(C)C)cc2C1` [Compound 1-439, 7-(3-(2-isopropylphenyl)-7,8-dihydro-1,6-naphthyridin-6(5H)-yl)-8-methyl-4H-pyrimido [1,2-b]pyridazin-4-one] were 22% and 1.23 µM. The like results for `Cc1cc(=O)n2nc(N3CCc4ncc(-c5ccc(F)nc5)cc4C3)c(C)c(C)c2n1` [Compound 1-204, 7-(3-(6-fluoropyridin-3-yl)-7,8-dihydro-1,6-naphthyridin-6(5H)-yl)-2,8,9-trimethyl-4H-pyrimido[1,2-b]pyridazin-4-one] were, in that order, 92% and 0.102 µM.
